Laboratory results reported in US20240199647A1, “ANTI-VIRAL COMPOUNDS” (Aligos Therapeutics, Inc., priority 2022, published 2024).
Like-named read-outs stand apart in the source and are kept apart here.

Tests used:
[1] = system: human beta-coronavirus OC43; assay: OC43 Coronavirus Assay in HeLa cells (antiviral, cytopathic effect, cell-titer-glo); format: cell-based; conditions: Betacoronavirus 1, OC43, HeLa, Table B, OC43 coronavirus in HeLa cells, read-out: EC50
SARS-Cov-2 3CLpro = SARS-Cov-2 3CLpro (Severe acute respiratory syndrome coronavirus 2, UniProt P0DTD1); assay: biochemical; conditions: Table A, class symbols, read-out: SARS-Cov-2 (IC50)
[2] = Cytotoxicity in HeLa cells without addition of OC43 virus (in parallel); conditions: human, HeLa cells, without OC43 virus
in vitro = conditions: human
[3] = system: SARS-CoV-2 B.1.1.7 lineage; assay: microbe, parasite or virus in culture; format: cell-based; conditions: Severe acute respiratory syndrome coronavirus 2, Table C, SARS-CoV-2 B.1.1.7 in A549-dual_ACE2_TMPRSS2 cells, read-out: A549-dual_ACE2_TMPRSS2 (EC50)

SMILES	EC50 ([1]; class symbols) [nM]	IC50 (SARS-Cov-2 3CLpro) [nM]	CC50 at 6 days [2] [nM]	CC50 (in vitro) [nM]	EC50 ([3]; class symbols) [nM]	EC50 ([1]; cells given as a bound) [nM]	EC50 ([3]; cells given as a bound) [nM]
CC(C)C[C@@H](C(=O)N1C[C@@]2(C[C@H]1C#N)N=C(C(C)(C)C)NC2=O)N(C)C(=O)[C@H](C)NC(=O)C(F)(F)F [Compound 47]	1000 to 10000	20 to 200	> 10000	> 1000	100 to 1000	–	–
CN(C(=O)[C@H](CC1CC1)NC(=O)C(F)(F)F)[C@@H](CC1CC1)C(=O)N1C[C@@]2(C[C@H]1C#N)Oc1c(cccc1-c1ccccc1)NC2=O [Compound 125, (S)—N—((S)-1-((2R,5'S)-5′-cyano-3-oxo-8-phenyl-3,4-dihydrospiro[benzo[b][1,4]oxazine-2,3′-pyrrolidin]-1′-yl)-3-cyclopropyl-1-oxopropan-2-yl)-3-cyclopropyl-N-methyl-2-(2,2,2-trifluoroacetamido)propanamide]	< 100	< 20	> 10000	> 1000	< 100	–	–
CN(C(=O)[C@H](CC1CC1)NC(=O)C(F)(F)F)[C@@H](CC1CC1)C(=O)N1C[C@@]2(C[C@H]1C#N)Oc1cc(F)ccc1NC2=O [Compound 50]	< 100	< 20	> 10000	> 1000	< 100	–	–
CN(C(=O)[C@H](CC1CC1)NS(=O)(=O)C1CC1)[C@@H](CC1CC1)C(=O)N1C[C@@]2(C[C@H]1C#N)Oc1ccccc1CNC2=O [Compound 175]	< 100	< 20	> 10000	> 1000	100 to 1000	–	–
CN(C(=O)[C@H](CC1CC1)NC(=O)C(F)(F)F)[C@@H](CC1CC1)C(=O)N1C[C@@]2(C[C@H]1C#N)Oc1cc(F)cnc1NC2=O [Compound 67]	< 100	< 20	> 10000	> 1000	100 to 1000	–	–
CC(C)N1CC2(CC2)C[C@H]1C(=O)N(C)[C@@H](CC1CC1)C(=O)N1C[C@@]2(C[C@H]1C#N)Oc1cc(F)cc(F)c1NC2=O [Compound 116]	100 to 1000	< 20	> 10000	> 1000	100 to 1000	–	–
CN(C(=O)c1cc2c(F)cc(F)c(F)c2[nH]1)[C@@H](CC1CC1)C(=O)N1C[C@@]2(C[C@H]1C#N)Oc1cc(F)cc(F)c1NC2=O [Compound 74]	–	20 to 200	> 10000	> 1000	100 to 1000	> 10000	–
C[C@H](NC(=O)C(F)(F)F)C(=O)N(C)[C@@H](CC1CC1)C(=O)N1C[C@@]2(C[C@H]1C#N)Oc1c(cccc1C1CC1)NC2=O [Compound 99]	100 to 1000	< 20	> 10000	> 1000	< 100	–	–
C[C@@H](C(=O)N(C)[C@@H](CC1CC1)C(=O)N1C[C@@]2(C[C@H]1C#N)Oc1cccnc1NC2=O)n1cc(C2CC2)nn1 [Compound 155]	100 to 1000	20 to 200	> 10000	> 1000	100 to 1000	–	–
CN(C(=O)[C@H](CC1CC1)NC(=O)C(F)(F)F)[C@@H](CC1CC1)C(=O)N1C[C@@]2(C[C@H]1C#N)Oc1c(F)cccc1CNC2=O [Compound 168]	< 100	< 20	> 10000	> 1000	< 100	–	–
COC(=O)N[C@@H](C)C(=O)N(C)[C@@H](CC1CC1)C(=O)N1C[C@@]2(C[C@H]1C#N)Oc1cccnc1NC2=O [Compound 213]	< 100	< 20	> 10000	> 1000	100 to 1000	–	–
CC(C)C[C@](C)(NC(=O)C(F)(F)F)C(=O)N(C)[C@@H](CC1CC1)C(=O)N1C[C@@]2(C[C@H]1C#N)Oc1cc(F)cc(F)c1NC2=O [Compound 100]	< 100	20 to 200	> 10000	> 1000	100 to 1000	–	–
CN(C(=O)[C@H](CC1CC1)NC(=O)C(F)(F)F)[C@@H](CC1CC1)C(=O)N1C[C@@]2(C[C@H]1C#N)Oc1cc(F)cc(F)c1NC2=O [Compound 55]	< 100	< 20	> 10000	> 1000	< 100	–	–
CC(C)C[C@@H](C(=O)N1C[C@@]2(C[C@H]1C#N)Oc1ccccc1NC2=O)N(C)C(=O)[C@H](C)NC(=O)C(F)(F)F [Example 1, (S)—N—((S)-1-((2R,5′S)-5′-cyano-3-oxo-3,4-dihydrospiro[benzo[b][1,4]oxazine-2,3′-pyrrolidin]-1′-yl)-4-methyl-1-oxopentan-2-yl)-N-methyl-2-(2,2,2-trifluoroacetamido)propanamide]	< 100	< 20	> 10000	> 1000	< 100	–	–
CC(C)C[C@@H](C(=O)N1C[C@]2(C[C@H]1C#N)C(=O)Nc1cc(-c3ccccc3)nn12)N(C)C(=O)[C@H](C)NC(=O)C(F)(F)F [Compound 25, (S)—N—((S)-1-((3R,5'S)-5′-cyano-2-oxo-6-phenyl-1,2-dihydrospiro[imidazo[1,2-b]pyrazole-3,3′-pyrrolidin]-1′-yl)-4-methyl-1-oxopentan-2-yl)-N-methyl-2-(2,2,2-trifluoroacetamido)propanamide]	100 to 1000	20 to 200	> 10000	> 1000	100 to 1000	–	–
CN(C(=O)[C@@H](Cc1ccc(F)cc1)NC(=O)C(F)(F)F)[C@@H](CC1CC1)C(=O)N1C[C@@]2(C[C@H]1C#N)Oc1cccnc1NC2=O [Compound 200]	100 to 1000	< 20	> 10000	> 1000	< 100	–	–
COC[C@H](NC(=O)C(F)(F)F)C(=O)N(C)[C@@H](CC(C)C)C(=O)N1C[C@@]2(C[C@H]1C#N)Oc1cc(F)cc(F)c1NC2=O [Compound 72]	100 to 1000	< 20	> 10000	> 1000	100 to 1000	–	–
CN(C(=O)[C@H](CC1CC1)NC(=O)C(F)(F)F)C(CC1CC1)C(=O)N1C[C@]2(Cc3ccccc3NC2=O)C[C@H]1C#N (stereo in doubt) [Example 33, (S)—N—((S)-1-((3S,5S)-5-cyano-2′-oxo-1′,4′-dihydro-2′H-spiro[pyrrolidine-3,3′-quinolin]-1-yl)-3-cyclopropyl-1-oxopropan-2-yl)-3-cyclopropyl-N-methyl-2-(2,2,2-trifluoroacetamido)propanamide]	100 to 1000	< 20	> 10000	> 1000	< 100	–	–
C[C@H](NC(=O)C(F)(F)F)C(=O)N(C)[C@@H](CC1CC1)C(=O)N1C[C@@]2(C[C@H]1C#N)Oc1cc(F)cnc1NC2=O [Compound 144]	< 100	< 20	> 10000	> 1000	100 to 1000	–	–
CN1CCC[C@H]1C(=O)N(C)[C@@H](CC1CC1)C(=O)N1C[C@@]2(C[C@H]1C#N)Oc1cc(F)cc(F)c1NC2=O [Compound 131]	1000 to 10000	20 to 200	> 10000	> 1000	–	–	> 1000
CC(C)C[C@@H](C(=O)N1C[C@@]2(C[C@H]1C#N)N=C(c1ccccc1)NC2=O)N(C)C(=O)c1cc2c(F)cc(F)cc2[nH]1 [Example 6, N-[(2S)-1-[(5R,8S)-8-cyano-4-oxo-2-phenyl-1,3,7-triazaspiro[4.4]non-1-en-7-yl]-4-methyl-1-oxopentan-2-yl]-4,6-difluoro-N-methyl-1H-indole-2-carboxamide]	100 to 1000	< 20	> 10000	> 1000	100 to 1000	–	–
CC1=N[C@@]2(C[C@@H](C#N)N(C(=O)[C@H](CC(C)C)N(C)C(=O)[C@H](C)NC(=O)C(F)(F)F)C2)C(=O)N1 [Compound 18]	1000 to 10000	20 to 200	> 10000	> 1000	–	–	> 1000
CN(C(=O)[C@H](CC1CC1)NC(=O)C(F)(F)F)[C@@H](CC1CC1)C(=O)N1C[C@@]2(C[C@H]1C#N)Oc1c(F)ccc(F)c1NC2=O [Compound 57]	< 100	< 20	> 10000	> 1000	< 100	–	–
CN(C(=O)[C@H](CC1CC1)NC(=O)C(F)(F)F)[C@@H](CC1CC1)C(=O)N1C[C@]2(C[C@H]1C#N)C(=O)Nc1nccn12 [Example 31, (2S)—N-[(2S)-1-[(3R,5'S)-5′-cyano-2-oxo-1H-spiro[[1,3]diazolo[1,2-a]imidazole-3,3′-pyrrolidin]-1′-yl]-3-cyclopropyl-1-oxopropan-2-yl]-3-cyclopropyl-N-methyl-2-(2,2,2-trifluoroacetamido)propanamide]	–	20 to 200	> 10000	> 1000	–	> 10000	> 1000
CN(C(=O)[C@@H](NC(=O)C(F)(F)F)C(C)(C)C)[C@@H](CC1CC1)C(=O)N1C[C@@]2(C[C@H]1C#N)Oc1cc(F)cc(F)c1NC2=O [Compound 53]	100 to 1000	< 20	> 10000	> 1000	100 to 1000	–	–
